Tests used:
Format in all cases: cell-based
[1] = tested on: human endocervical tissue explants; test: Ng-induced epithelial exfoliation of human endocervical tissue explants (3D-CFM); conditions: MS11ΔOpa, 24 h; ML-7 10 μM, PIK 100 μM
Description: Human endocervical tissue explants. The tissue explants were cultured as previously described. Endocervical tissues were obtained from patients undergoing voluntary hysterectomies and received within 24 h post-surgery. Samples were cut into ˜2.5 cm (L)×0.6 cm (W)×0.3 cm (H) pieces, incubated in CMRL-1066 (GIBCO, Gaithersburg, Md.) plus antibiotics for 24 h, and then switched to antibiotic-free media for 24 h.
(§1) Immunofluorescence analysis of human endocervical tissue explants. […] The tissue was fixed, embedded in gelatin, cryopreserved, sectioned crossing the apical and basolateral surfaces of the epithelium, stained for ZO1 (BD Bioscience), pMLC (Cell Signaling Technology, Beverly, Mass.), and Ng (51) by specific antibodies, and nuclei by DAPI (Life Technologies, Carlsbad, Calif.), and analyzed using CFM (Zeiss LSM 710, Carl Zeiss Microscopy LLC, Oberkochen, Germany). […]
To quantify epithelial exfoliation, the number of Ng associated cells localized on the top of the epithelial monolayer (exfoliated) and the total number of Ng associated epithelial cells was counted by visual inspection in each randomly acquired image, to determine the percentage of exfoliated cells. […] To quantify the redistribution of pMLC, the fluorescence intensity ratios (FIR) of pMLC staining at the apical to lateral in individual epithelial cells were determined using average FI as previously described.

ZO1 = ZO1 distribution and cell morphology in Ng-infected human endocervical tissue explants; conditions: MS11ΔOpa 24 h, ML-7 10 μM
Excerpt: We determined if MS11ΔOpa can induce the disruption of the apical junction in human endocervical tissue. Sections of uninfected and infected tissue explants were stained for the junctional protein ZO1, Ng, and DNA and analyzed by 3D-CFM (FIG. 4G). We quantified junction disruption by determining the percentage of Ng associated epithelial cells that lost continuous apical staining of ZO1, using 3D reconstituted confocal images (FIG. 4G, right panels). […] In contrast to the recruitment of ZO1 to epithelial cells neighboring exfoliating cells in uninfected monolayers, no accumulation of ZO1 staining was observed around Ng infected exfoliating cells (FIG. 4I, arrows). […] Treatment with the MLCK inhibitor ML-7 restored both the morphology (FIG. 4G left panels) and apical distribution of ZO1 (FIG. 4H).
as §1

[2] = tested on: phosphorylated myosin light chain (pMLC); test: pMLC redistribution in Ng-inoculated human endocervical tissue explants; conditions: MS11ΔOpa-inoculated endocervical tissue explants, 24 h
Description: To explore the possibility of that Ng induced NMII redistribution occurs in vivo, we incubated human endocervical tissue explants with MS11ΔOpa for 24 h. Cryo-sections of the endocervical tissue were stained for pMLC, Ng and nuclei. In addition to its apical junction localization, pMLC was concentrated at the basal surface of the endocervical epithelial cells contacting with the basal membrane (FIG. 6A, upper panels). When incubated with MS11ΔOpa, there was a redistribution of pMLC from the basal to apical surface, resulting in a significant higher apical:lateral FIR in Ng inoculated tissue explants than that in no Ng control (FIG. 6), similar to what we observed in polarized T84 (FIGS. 5A and 5B) and HEC-1-B cells (FIG. 10). Furthermore, pMLC at the apical surface of the endocervical epithelial cells also concentrated at Ng adherent sites (FIG. 6A, second row, white arrows), but not at the membrane of cells neighboring exfoliating cells (FIG. 6A, second row, orange arrows). These observations confirm that Ng increase the relative amount of activated NMII at the apical surface of the endocervical epithelial cells in human tissue explants. […]
as §1
To quantify epithelial exfoliation, the number of Ng associated cells localized on the top of the epithelial monolayer (exfoliated) and the total number of Ng associated epithelial cells was counted by visual inspection in each randomly acquired image, to determine the percentage of exfoliated cells. To estimate the level of Ng penetration into the subepithelium, the number of non-exfoliated epithelial cells (in clearly visible epithelial monolayers) with basal Ng staining and the total number of Ng associated epithelial cells were visually counted to calculate the percentage of infected epithelial cells with Ng penetration into the basolateral side. To evaluate the disruption of the apical junction, the number of Ng associated epithelial cells that lost continuously apical staining of the junctional protein ZO1 and the total number of Ng associated epithelial cells were visually counted to calculate the percentage of Ng associated epithelial cells with apical junction disassembly. […]

O=S(=O)(c1cccc2c(I)cccc12)N1CCCNCC1 [ML-7] was tested, and the “epithelial exfoliation of human endocervical tissue explants” value [1] was “decreased the epithelial exfoliation of human endocervical tissue explants to the basal level”, the “apical distribution of ZO1” value (ZO1) was “restored” and the “morphology of endocervical epithelial cells” value (ZO1) was “restored”. For the same compound, the “pMLC accumulation at Ng adherent sites” value [2] was “significantly reduced” and the “apical:lateral FIR of pMLC” value ([2]; ML-7 10 μM, PIK 100 μM) was “significantly reduced”.

Source: patent US10660933B2, “Compositions and methods for inhibition of bacterial infections in human endocervix” (priority 2015, dated 2020)
